Source: patent US12329159B2, “Systems and methods for use of chlorine dioxide in cultivation and post-harvest applications” (Prokure Solutions, LLC, priority 2018, dated 2025)
Several values for one entry are separate records, joined by “and”; a condition that tells them apart may be missing. Identical values can stand only once.

What was measured:
Cannabis plants [1] = assay: Effects of chlorine dioxide on vegetative growth (grow tent, leaf count); type: in vivo; conditions: about 3 mg of chlorine dioxide per hour, 10 days; for Leaf Count # of new leaves / Leaf Count Final: Experimental tent, 240 cubic feet
Experimental: Experiments were performed to determine the effects of using a continuous release dose of about 3 mg of chlorine dioxide per hour on the vegetative growth of Cannabis plants.
Cannabis plants were placed in a grow tent and grown under artificial lighting for 10 days. Leaf counts were performed prior to placing in the tent and again after 10 days. Two separate grow tents were used, one for the experiment and one as the control. The total leaf count was compared between the experimental and control plants. Temperature and relative humidity measurements were taken 3 times per day to ensure both tents maintained the same environmental conditions.
A pouch was hung from the top of the inside of the experimental tent. The pouch dispensed approximately 3 mg of chlorine dioxide per hour for the duration of the trial (10 days). Within the experimental tent the Cannabis plants were exposed to about 720 mg of gaseous chlorine dioxide over the 10-day period.
Three Cannabis plants were placed into each tent. Two of the plants were of a Cannabis indica variety, and one plant was a Cannabis sativa variety. The photoperiod used in both tents was 20 hours with lights on followed by 4 hours with lights off. All watering, nutrients, pest control, etc. were identical for all plants.

Cannabis plants [2] = assay: Toxicity responses of Cannabis plants to foliar applications of chlorine dioxide; type: in vivo; conditions: for plants with damage to floral tissue (discoloration): after the third application
Experimental: Regular and excessive rates of chlorine dioxide dissolved in water were sprayed up to five times at 2-day intervals on two varieties of Cannabis plants in both vegetative and flowering stages to determine if plant damage would result. Adverse effects were assessed based on visible discoloration or chlorosis of leaves and/or flowers. All plants were monitored for several days after the final application of chlorine dioxide.
Experiments were performed in a greenhouse with temperatures between 70° F. and 80° F. Plants were potted in soil and appeared healthy and undamaged prior to treatment. All plants received the same amount of water and nutrients as controls, delivered via soil drenching. All plants, including controls, were the same age. At the beginning of the experiments, both flowering and vegetative plants had 3 weeks of the respective growth stage remaining.
Concentrations of chlorine dioxide tested include 0, 50, 100, and 500 ppm. All chlorine dioxide solutions were prepared from 500 ppm stock solution, mixed in containers and used immediately. Each of the rates was tested in triplicate with separate plants in both stages of growth and with Cannabis indica and Cannabis sativa Cannabis plants. A common trigger sprayer bottle with the tip adjusted to a mist setting was used to apply treatments. Plants were sprayed until all leaves and stems were visibly wet. Each treatment rate was applied at 2-day intervals, and the number of applications ranged from 1 to 5 depending on the amount of damage that occurred to the plant.
Damage was assessed 2 days after an application and prior to the next application. Treated plants were assessed for damage 6 days after the 5th and final spray treatment. Observed symptoms associated with the application of chlorine dioxide were necrosis of leaf tissue appearing as lesions between and across leaf veins and at leaf margins. Early symptoms included yellowing of leaves. Some lesions had dark brown borders and/or appeared desiccated.

Ascospores = assay: Spore trap testing, treated greenhouse: Ascospores; type: in vivo; conditions: 1.2 mg chlorine dioxide gas per hour per 4000 cubic feet
Experimental: (§1) Very low-level chlorine dioxide protection using about 3 mg chlorine dioxide gas per hour for every 4000 cubic feet (50-gram ProKure® D Extended Release Gas product (ProKure® Solutions), 2000 mg total over 4 weeks) was tested to determine the effects on reduction and prevention of fungal microorganism counts. The rate of chlorine dioxide production will vary depending on the relative humidity (RH) in the room. The above rate is for RH range of 40-60%. Each 3 mg chlorine dioxide per hour product (50-gram) unit will cover 4000 cubic feet of space. The 4000 cubic foot volume is recommended for safety reasons. This volume of space insures that the concentration of the gas remains below the OSHA regulated Permissible Exposure Limit (PEL) which is 0.1 ppmv (time weighted average (TWA) over a 8-hours per day or 40-hour work week) and the Short Term Exposure Limit (STEL) which is 0.3 ppmv (TWA over any 15-minute period) for chlorine dioxide.
(§2) All data is based on the dose described a unless otherwise noted. The spore counts per cubic meter prior to treatment are compared to spore counts per cubic meter post treatment with the treatment time indicated. […]
(§3) Treatment was performed using 1.2 mg chlorine dioxide gas per hour per 4000 cubic feet. […] The fungus could not be detected by visual inspection after about 30 days of treatment. […]

Fusarium = assay: Spore trap testing, treated greenhouse: Fusarium; type: in vivo; conditions: 1.2 mg chlorine dioxide gas per hour per 4000 cubic feet
Experimental: as §1, §2, §3

Penicillium/Aspergillus = assay: Spore trap testing, treated greenhouse: Penicillium/Aspergillus; type: in vivo; conditions: 1.2 mg chlorine dioxide gas per hour per 4000 cubic feet
Experimental: as §1, §2, §3

Torula = assay: Spore trap testing, treated greenhouse: Torula; type: in vivo; conditions: 1.2 mg chlorine dioxide gas per hour per 4000 cubic feet
Experimental: as §1, §2, §3

[3] = system: unidentified fungal strain having an appearance similar to powdery mildew; assay: Visual inspection of fungal infection on greenhouse mother plants; type: in vivo; conditions: 1.2 mg chlorine dioxide gas per hour per 4000 cubic feet, 4500 mother plants
Experimental: An experimental trial was performed in a greenhouse with approximately 1×10^6 cubic feet of space holding 4500 mother plants. All plants were potted in soil and were approximately 5-7 feet tall, depending on whether cuttings had recently been taken for clone propagation. Plants evidenced visible signs of infection with an unidentified fungal strain having an appearance similar to powdery mildew. The fungus was actively growing and covered most leaves and major stalks. The fungus was a strain that only infected the surface of the plants and was not systemic in the plants.
Treatment was performed using 1.2 mg chlorine dioxide gas per hour per 4000 cubic feet. Spore trap testing was performed pre-treatment and at seven days post-treatment. The fungus could not be detected by visual inspection after about 30 days of treatment. Treatment continued as a preventative measure, with further spore trap testing at 45 days post treatment. Spore trap data follows below in Table 5.

[4] = cited from earlier work
[5] = 500 ppm foliar spray, all plants, after the fifth application

[O][Cl+][O-] [chlorine dioxide]
Leaf Count # of new leaves (Cannabis plants [1]; Indica): 68 and 36
Leaf Count Final (Cannabis plants [1]; Indica): 92 and 61
Leaf Count # of new leaves (Cannabis plants [1]; Sativa): 52
Leaf Count Final (Cannabis plants [1]; Sativa): 83
visible sign of adverse effects (Cannabis plants [1]; 240 cubic feet tent): none of the plants showed any visible sign of adverse effects
foliar or flower tissue damage (Cannabis plants [2]; 50 ppm chlorine dioxide in water, foliar spray, five applications at 2-day intervals): No foliar or flower tissue damage was visible
plants exhibiting damage to leaves (Cannabis plants [2]; 100 ppm foliar spray, indica-type flowering plants, two days after the 4th application): Two out of the three
damage to leaves or flowers (Cannabis plants [2]; 100 ppm foliar spray, sativa-type flowering plants): None of the sativa-type flowering plants exhibited damage to leaves or flowers
visible damage to leaves (Cannabis plants [2]; 100 ppm foliar spray, vegetative plants of both varieties): exhibited visible damage to leaves following the fourth application
smell compared with control plants (Cannabis plants [2]; [5]): did not have the same smell as control plants
tissue damage (Cannabis plants [2]; [5]): exhibited tissue damage after the fifth application
leaf damage (Cannabis plants [2]; 500 ppm foliar spray, all plants, single application): exhibited leaf damage 24 to 48 hours after a single application
plants with damage to floral tissue (discoloration) (Cannabis plants [2]; 500 ppm foliar spray, indica-type plants): 2 of the 3
plants with damage to floral tissue (discoloration) (Cannabis plants [2]; 500 ppm foliar spray, sativa-type plants): 1 of the 3
Ascospores Count (Ascospores; 7 Days Post-Treatment): 27 per cubic meter
Ascospores Count (Ascospores; 45 Days Post-Treatment): 0 per cubic meter
Fusarium spore Count (Fusarium; 7 Days Post-Treatment): 0 per cubic meter
Fusarium spore Count (Fusarium; 45 Days Post-Treatment): 0 per cubic meter
Penicillium/Aspergillus spore Count (Penicillium/Aspergillus; 7 Days Post-Treatment): 0 per cubic meter
Penicillium/Aspergillus spore Count (Penicillium/Aspergillus; 45 Days Post-Treatment): 0 per cubic meter
Torula spore Count (Torula; 7 Days Post-Treatment): 0 per cubic meter
Torula spore Count (Torula; 45 Days Post-Treatment): 0 per cubic meter
time of treatment after which the fungus could not be detected by visual inspection [3]: about 30 days
Short Term Exposure Limit (STEL) ([4]; TWA over any 15-minute period): 0.3 ppmv
OSHA regulated Permissible Exposure Limit (PEL) ([4]; time weighted average over 8 hours per day or 40-hour work week): 0.1 ppmv
